From patent US7098350B2, “E2,E4,Z8-undecatrienoic acid and ester and carboxamide derivatives thereof, organoleptic uses thereof and processes for preparing same” (International Flavors & Fragrances Inc., priority 2003, dated 2006)

What was measured:
[1] = Organoleptic and somatosensory properties (Table I); conditions: at 10 ppm
Excerpt: Specific members of the 2,4,8-undecatrienoic acid derivative genus of our invention have organoleptic and somatosensory properties as set forth in the following Table I: […]

[2] = Taste evaluation in kiwi-flavored 30° proof alcoholic beverage; conditions: 3 ppm compound plus 200 ppm kiwi flavor blend in 30° proof alcoholic base; control has flavor blend only
Experimental: (§1) The following formulation was prepared: […]
Flavored beverages were prepared using the above 30° proof alcoholic base. A kiwi flavor was applied to the beverages. This flavor consisted of cis-3 hexenol, trans-2 hexenal, ethyl butyrate, ethyl-2-methyl butyrate, isoamyl butyrate, ethyl acetate, ethyl isovalerate, and trans-2-hexenol in equal proportions. The control beverage contained 200 ppm of the above flavor blend. […] Another beverage was prepared containing 200 ppm of the same flavor and 3 ppm of N-isobutyl E2,E4,Z8-undecatrienamide prepared according to Example 1(B).

[3] = Taste evaluation in cola-flavored hard candy; conditions: 50 ppm compound in cola-flavored hard candy; control without compound
Experimental: as §1
The above formulation was added to a stainless steel pot. With constant mixing, the formulation temperature was raised to 295° F. The pot was then removed from the heat, and 1.0 grams of a cola flavor containing the ingredients in equal amounts: cinnamic aldehyde, ginger oil, lemon oil, lime oil and nutmeg oil was added and blended with the sucrose-corn syrup-water formulation. After the blending was complete, 1.2 grams of citric acid was added. The resulting liquid candy was then deposited into molds, and the molds containing the liquid candy were cooled to room temperature, yielding 200 grams of finished hard candy. […] A second candy sample was prepared using the above recipe modified by the addition of 50 ppm of N-isobutyl E2, E4, Z8-undecatrienamide prepared according the procedure of Example 1 (B).

## CC/C=C\CC/C=C/C=C/C(=O)NCC(C)C [N-isobutyl E2,E4,Z8-undecatrienamide]
[1]
  Primary Flavor or Sensory Characteristic (sensation): Strong tingle at 10 ppm.
[2]
  Flavor of beverage versus control: slightly more melon rind in character than the control
  Perception / somatosensory effect of beverage versus control: enhanced perception of alcohol and a tingle effect on the tongue
[3]
  Flavor and taste effect of hard candy versus control: moderately strong and substantive cola profile, as well as a taste effect similar to carbonation
